Where “and” joins values, the source holds several entries; their conditions need not be identical. Equal values may be shown once.
Legend:
Format in all cases: in vivo
db/db mice [1] = assay: Body weight of db/db mice during 35-day treatment
Method: (§1) The lean wild type control and the db/db control mice were given equal vehicle volume (0.5% CMC-Na solution). All mice were monitored for food intake, body weight, and fasting blood glucose during the 35-day trial. Glucose tolerance test (GTT) and insulin resistance test (ITT) were performed at 4 and 5 weeks of treatment, respectively. Metabolic analysis was performed at 5 weeks of treatment. At the end of the study, blood samples were taken through the retroorbital venous sinus of mice, fat depots (brown fat, inguinal subcutaneous fat, epididymal fat, perirenal fat and mesenteric fat depot) were dissected, weighed, and immediately frozen in liquid nitrogen and stored at −80 °C until required. Weight of fat depots are expressed in percentage (fat depots weight /bodyweight * 100%).

db/db mice [2] = assay: Serum CHO, TG, FFA, LDL-C, HDL-C and ADPN in the fasted state
Method: The serum was collected by centrifugation at 3000 × g at 4 °C for 15 min and stored at −80 °C until analysis. TG, TC, LDL-C, HDL-C, and FFA were routinely tested on a Chemray 240 automatic biochemical analyzer (Chemray 240, Shenzhen, China). Serum levels of mouse adiponectin, interleukin6 (IL-6), tumor necrosis factor-α (TNF-α) were measured using commercial enzyme-linked immunosorbent assay (ELISA) kits (Nanjing Jiancheng Bioengineering Institute, Nanjing, China) and according to the manufacturer’s instructions. The levels of IL-6, TNF-α in 3T3-L1 adipocyte culture supernatant were also detected by ELISA.

db/db mice [3] = assay: Weekly fasting glucose levels of db/db mice; conditions: 150mg/kg
Method: as §1

db/db mice [4] = assay: Fasting serum insulin levels (ELISA); conditions: 150mg/kg, individual animals
Method: Mice were fasted for 4 h for insulin resistance test and intraperitoneally injected with 1 unit/kg of insulin. Blood glucose levels were measured from the tail vein blood at 0, 15, 30, 45, 60, 90, and 120 min after injection. Plasma insulin levels were measured using an ultrasensitive mouse insulin ELISA kit (Nanjing Jiancheng Bioengineering Institute, Nanjing, China).

[5] = 150mg/kg, serum, individual animals
[6] = db/db mice, vs vehicle, BJ 75 and 150 mg/kg, BBR 150 mg/kg, Ibu 150 mg/kg

Question: With `CC(C)Cc1ccc(C(C)C(=O)O)cc1` (stereo not shown) [Ibu, Ibuprofen, reference compound] as the molecule, how does the “Body weight” value (db/db mice [1]; 150mg/kg, day 1, individual animals, in g (unit assumed)) read?
Answer: 38.2 and 39.7

Question: What about the “Body weight” value (db/db mice [1]; 150mg/kg, day 4, individual animals, in g (unit assumed)) of the same molecule?
Answer: 40.6 and 39.7

Question: And the “Body weight” value (db/db mice [1]; 150mg/kg, day 19, individual animals, in g (unit assumed))?
Answer: 48.2

Question: What about the “Body weight” value (db/db mice [1]; 150mg/kg, day 22, individual animals, in g (unit assumed)) of the same molecule?
Answer: 50.5

Question: And the “Body weight” value (db/db mice [1]; 150mg/kg, day 25, individual animals, in g (unit assumed))?
Answer: 51.6 and 48.5

Question: What about the “Body weight” value (db/db mice [1]; 150mg/kg, day 28, individual animals, in g (unit assumed)) of the same molecule?
Answer: 49.3 and 49.1 and 52.6 and 48.8 and 51.3

Question: What about the “Body weight” value (db/db mice [1]; 150mg/kg, day 31, individual animals, in g (unit assumed)) of the same molecule?
Answer: 48.5 and 50.3 and 53 and 48.8 and 51.4

Question: And the “Body weight” value (db/db mice [1]; 150mg/kg, day 34, individual animals, in g (unit assumed))?
Answer: 51.2 and 54.1 and 50.2 and 52.2

Question: What about the “Body weight gain (day 34 minus day 1)” value (db/db mice [1]; 150mg/kg, individual animals, in g (unit assumed)) of the same molecule?
Answer: 12.5 and 9.1 and 9.9 and 9.2 and 12.8 and 12

Question: What about the “Body weight compared with vehicle” value (db/db mice [1]; db/db mice, 5 weeks, BJ 75 and 150 mg/kg, BBR 150 mg/kg, Ibu 150 mg/kg) of the same molecule?
Answer: did not observe any significant difference in body weight

Question: What about the CHO (db/db mice [2]; [5]) of the same molecule?
Answer: 4.079 mmol/L and 3.798 mmol/L and 4.949 mmol/L and 5.236 mmol/L and 4.727 mmol/L and 4.145 mmol/L

Question: What about the FFA (db/db mice [2]; [5]) of the same molecule?
Answer: 912.261 µmol/L and 870.411 µmol/L and 861.968 µmol/L and 886.564 µmol/L and 965.859 µmol/L and 978.341 µmol/L

Question: And the HDL-C (db/db mice [2]; [5])?
Answer: 1.7462 mmol/L and 1.7831 mmol/L and 1.9083 mmol/L and 2.0311 mmol/L

Question: And the LDL-C (db/db mice [2]; [5])?
Answer: 5.9624 mmol/L and 6.6672 mmol/L and 7.0004 mmol/L and 6.9602 mmol/L and 5.8098 mmol/L and 6.6236 mmol/L

Question: What about the “Mouse ADPN” value (db/db mice [2]; [5]) of the same molecule?
Answer: 593.01 ng/mL and 440.43 ng/mL and 462.23 ng/mL and 556.39 ng/mL and 491.43 ng/mL and 431.93 ng/mL

Question: And the TG (db/db mice [2]; [5])?
Answer: 1.761 mmol/L and 1.861 mmol/L and 1.959 mmol/L and 1.91 mmol/L and 1.579 mmol/L and 1.279 mmol/L

Question: What about the “Serum levels of CHO, TG, FFA and LDL-C” value (db/db mice [2]; [6]) of the same molecule?
Answer: not significantly different

Question: What about the “Serum levels of HDL-C and adiponectin (ADPN)” value (db/db mice [2]; [6]) of the same molecule?
Answer: not significantly different

Question: What about the “Blood Glucose (Figure S9n)” value (db/db mice [3]; week 0, individual animals) of the same molecule?
Answer: 16.0 mmol/L and 15.1 mmol/L and 15.0 mmol/L and 16.2 mmol/L and 11.3 mmol/L and 15.2 mmol/L

Question: What about the “Blood Glucose (Figure S9n)” value (db/db mice [3]; week 1, individual animals) of the same molecule?
Answer: 16.3 mmol/L and 19.3 mmol/L and 21.7 mmol/L and 13.6 mmol/L and 13.3 mmol/L and 14.9 mmol/L

Question: What about the “Blood Glucose (Figure S9n)” value (db/db mice [3]; week 2, individual animals) of the same molecule?
Answer: 20.7 mmol/L and 21.3 mmol/L and 19.0 mmol/L

Question: What about the “Blood Glucose (Figure S9n)” value (db/db mice [3]; week 3, individual animals) of the same molecule?
Answer: 23.3 mmol/L and 18.9 mmol/L and 18.7 mmol/L and 22.0 mmol/L

Question: And the “Blood Glucose (Figure S9n)” value (db/db mice [3]; week 4, individual animals)?
Answer: 22.4 mmol/L and 22.3 mmol/L and 22.8 mmol/L

Question: What about the “Blood Glucose (Figure S9n)” value (db/db mice [3]; week 5, individual animals) of the same molecule?
Answer: 23.6 mmol/L and 23.0 mmol/L

Question: And the Insulin (db/db mice [4])?
Answer: 16.07 mIU/L and 14.41 mIU/L and 14.02 mIU/L and 15.71 mIU/L and 12.42 mIU/L and 14.35 mIU/L

— paper PMC9374667 (Communications Biology, 2022)
